Measurements taken from article PMC2990764, “Evolution of Allosteric Citrate Binding Sites on 6-phosphofructo-1-kinase” (PLoS ONE, 2010).
Substitutions are numbered along the chain they refer to.

What was measured:
Assay in all cases: coupled spectrophotometric PFK1 assay ([…] nm) with purified enzyme
Type in all cases: biochemical
[1] = biological target: T1, human muscle type 6-phosphofructo-1-kinase (PFK-M) (Homo sapiens, UniProt P08237)
T1 construct: gene PFKM; recombinant native human PFK-M expressed in E. coli RL257
T1 sequence (P08237 2-780): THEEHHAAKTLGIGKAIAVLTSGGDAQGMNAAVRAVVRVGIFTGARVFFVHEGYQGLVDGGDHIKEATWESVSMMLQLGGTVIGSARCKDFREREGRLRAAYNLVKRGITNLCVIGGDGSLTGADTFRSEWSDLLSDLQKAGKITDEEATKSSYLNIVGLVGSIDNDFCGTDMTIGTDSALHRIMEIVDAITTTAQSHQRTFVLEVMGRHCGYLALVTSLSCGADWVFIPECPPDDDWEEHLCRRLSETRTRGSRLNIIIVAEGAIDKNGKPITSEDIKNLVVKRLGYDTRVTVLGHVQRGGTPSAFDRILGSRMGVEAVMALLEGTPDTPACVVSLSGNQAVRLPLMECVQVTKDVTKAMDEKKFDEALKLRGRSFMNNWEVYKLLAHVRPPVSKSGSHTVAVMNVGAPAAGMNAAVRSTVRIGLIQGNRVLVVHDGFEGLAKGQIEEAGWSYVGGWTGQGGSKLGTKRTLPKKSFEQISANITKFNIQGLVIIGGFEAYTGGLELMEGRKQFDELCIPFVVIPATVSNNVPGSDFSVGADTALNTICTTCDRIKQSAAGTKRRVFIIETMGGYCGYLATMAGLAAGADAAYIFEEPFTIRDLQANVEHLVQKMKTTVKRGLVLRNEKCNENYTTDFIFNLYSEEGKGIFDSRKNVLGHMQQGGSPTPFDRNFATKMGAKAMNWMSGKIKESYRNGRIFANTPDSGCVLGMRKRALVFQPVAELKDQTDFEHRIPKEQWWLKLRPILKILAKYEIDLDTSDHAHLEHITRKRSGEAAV

[2] = biological target: T2, human muscle type 6-phosphofructo-1-kinase (PFK-M) (Homo sapiens, UniProt P08237, K617A)
T2 construct: gene PFKM; recombinant human PFK-M mutant expressed in E. coli RL257
T2 sequence (P08237 2-780 K617A): T1 sequence (P08237 2-780) with K616A

[3] = biological target: T3, human muscle type 6-phosphofructo-1-kinase (PFK-M) (Homo sapiens, UniProt P08237, K557R)
T3 construct: gene PFKM; recombinant human PFK-M mutant expressed in E. coli RL257
T3 sequence (P08237 2-780 K557R): T1 sequence (P08237 2-780) with K556R

For `O=C(O)CC(O)(CC(=O)O)C(=O)O` [citrate], the Ki [1] was 50 µM, the Ki [2] was 500 µM and the Ki [3] was 300 µM.
